Laboratory results published in patent US20130034522A1, “THERAPIES FOR TREATING HEPATITIS C VIRUS INFECTION” (priority 2010, published 2013).
Values after ≈ are worked out from the molar mass of the structure shown.

Assays:
[1] = PK of prodrugs of Compound 1 in rats; assay type: in vivo; settings: oral gavage 3 mg/kg, plasma, FIG. 9
Protocol: The prodrugs whose PK parameters are to be determined can be formulated as a solution in 0.5% MC/0.5% Tween 80/99% water and administered orally by gavage to rats at a dose of 3 mg/kg. Rats are weighed the day before the study. Rat plasma is sampled predose and at 15, 30 min, 1, 2, 3, 4, 6, 8, 12 and 24 hrs post dose using Instech automatic blood sampling equipment. Blood is collected in tubes containing K2-EDTA and 110 uL plasma are extracted for analysis. Rats are fed ad lib and standard IACUC and SOP protocols are followed. Plasma samples and dose samples are analyzed using LC/MS/MS for both the prodrug compound and the active metabolite. PK parameters for both analytes for each subject are calculated using the measured dose of prodrug.

[2] = tested on: hepatitis C virus (HCV) replicon; assay: HCV replicon cell assay; assay type: cell-based; settings: HCV RNA level, 48-hour incubation
Protocol: Cells containing hepatitis C virus (HCV) replicon were maintained in DMEM containing 10% fetal bovine serum (FBS), 0.25 mg per ml of G418, with appropriate supplements (media A).
On day 1, replicon cell monolayer was treated with a trypsin:EDTA mixture, removed, and then media A was diluted into a final concentration of 100,000 cells per ml with 10,000 cells in 100 μl were plated into each well of a 96-well tissue culture plate, and cultured overnight in a tissue culture incubator at 37° C.
On day 2, compounds (in 100% DMSO) were serially diluted into DMEM containing 2% FBS, 0.5% DMSO, with appropriate supplements (media B). The final concentration of DMSO was maintained at 0.5% throughout the dilution series.
Media on the replicon cell monolayer was removed, and then media B containing various concentrations of compounds was added. […]
A Taqman real-time RT-PCR quantification assay was set up with two sets of specific primers and probe. […] Total RNA extractants from treated HCV replicon cells was added to the PCR reactions for quantification of both HCV and BVDV RNA in the same PCR well. […] The level of HCV RNA in each well was calculated according to a standard curve run in the same PCR plate. The percentage of inhibition or decrease of HCV RNA level due to compound treatment was calculated using the DMSO or no compound control as 0% of inhibition. […]

[3] = male, human, in vivo
Protocol: 25 healthy male volunteers were enrolled.
A dose escalation scheme was used that combined dose doubling and modified Fibonacci to be aggressive in the lower dose range and conservative in the higher dose range.
A pharmacokinetics analysis was performed using the statistical moment approach.

[4] = tested on: HCV; settings: monotherapy, patients; cited from earlier work

C[C@@H](N)C(=O)O[C@H]1CC[C@H](N(c2cc(C#CC(C)(C)C)sc2C(=O)O)C(=O)[C@H]2CC[C@H](C)CC2)CC1 [Compound H]
in vivo conversion of prodrug [1]: converted into the —OH active metabolite

CCC[C@H](NC(=O)[C@@H]1[C@H]2CCC[C@H]2CN1C(=O)[C@@H](NC(=O)[C@@H](NC(=O)c1cnccn1)C1CCCCC1)C(C)(C)C)C(=O)C(=O)NC1CC1 [VX-950]
IC50 [2]: 0.24 µg/mL (≈ 0.353 µM) | IC90 [2]: 0.476 µg/mL (≈ 0.7 µM) | eliminated unchanged in the urine [3]: Less than 2%

interferon alfa
long term remission, fraction of cases [4]: ~25%
